Each structure is given as a SMILES string. Where two headings read alike, the source gives them in different places.

The nature of data set [1]: Pharmacokinetic (bioavailability) study of ibuprofen + ketoprofen nasal spray in healthy adult human subjects, plasma by LC-MS/MS. As for the experimental part:
Pharmacokinetic study to evaluate the bioavailability of the pharmaceutical composition prepared according to the present disclosure.
Blood samples were centrifuged at about 4000 rpm for 10 minutes at 4±2° C. to separate the plasma. The resulting plasma was equally transferred into 2. These aliquots were stored frozen, upright in a freezer within 90 minutes of blood collection time of each sample at a temperature of −70° C. […] until they were analyzed.
Sample values below the LLOQ were reported as Below Quantification Limit (BQL). Pharmacokinetic parameters were calculated using Phoenix® WinNonlin® software (version: 8.3). The following parameters were calculated:
Primary pharmacokinetic parameters: Cmax, AUC0-t and AUC0-∞ Secondary pharmacokinetic parameters: tmax, t1/2, Kel and AUC_% Extrap_obs.

For data set [2] the following is noted: cited from earlier work.
The conditions of data set [3]: topical sustained release composition, at three hours; cited from earlier work.

On to `CC(C)Cc1ccc(C(C)C(=O)O)cc1` (stereo not drawn) [ibuprofen], for which the AUC(0-inf) in data set [1] (human, in vivo, inhaled or intranasal, AUC0-∞ range over the dose range of the composition, intranasal, dosage unit 0.4-8 mg ibuprofen and 0.025-0.48 mg ketoprofen) fell in the range of 0.133 to 1.92 µg·h/mL. In addition, the Cmax in data set [1] (human, in vivo, inhaled or intranasal, plasma Cmax range over the dose range of the composition, intranasal, dosage unit 0.4-8 mg ibuprofen and 0.025-0.48 mg ketoprofen) was in the range of 0.0414 to 0.828 µg/mL. Moreover, the Cmax in data set [1] (human, in vivo, inhaled or intranasal, plasma Cmax, intranasal, 8 sprays (100 μL each), printed as equivalent to 1.816 mg ibuprofen and 0.24 mg ketoprofen) was found to be 0.165 µg/mL. Moreover, the “Cmax lower than expected Cmax of minimum approved oral dose” value in data set [1] (intranasal 8 sprays vs oral 200 mg ibuprofen / 12.5 mg ketoprofen) is given as “approximately 100 times”. For the same compound, the “expected Cmax for the minimum approved oral dose” value in data set [2] (oral ibuprofen 200 mg, as reported in the literature) is reported as “approximately 17.3 μg/mL”. In addition, in data set [2] (oral ibuprofen, 400 mg), the maximum plasma concentration is 32.8 µg/mL and the “time of maximum plasma concentration” value is 90 min. Also, in data set [2] (oral ibuprofen, dose 100 mg), the peak plasma concentration was 9.5 µg/mL and the “time of peak plasma concentration” value is 116 min.
In the case of `CC(C(=O)O)c1cccc(C(=O)c2ccccc2)c1` (stereo not drawn) [ketoprofen], in data set [2] (oral ketoprofen, dose 50 mg), the peak plasma concentration was 2.6 µg/mL and the “time of peak plasma concentration” value is 134 min. For the same compound, in data set [3], the “peak plasma concentration of ketoprofen” value was “at most 450 ng/ml”.

Broadly, the AUC(0-inf) is total exposure, with the tail of the curve extrapolated. A word on the Cmax: it is the maximum level reached in the sampled fluid or tissue.

Values taken from patent US20260083693A1, “PHARMACEUTICAL COMPOSITION FOR THE ACUTE TREATMENT OF MIGRAINE AND OTHER FORMS OF HEADACHE” (priority 2024, published 2026).
